Measurements taken from US11883526B2 (priority 2019, dated 2024).

Tests used:
[1] = test system: subjects with MDD at imminent risk for suicide; experiment: Beck Scale for Suicidal Ideation, BSS ([…]2001); format: in vivo, human; conditions: 84 mg; for BSS total score change from baseline, Diff. of LS Means (minus Placebo): ANCOVA LOCF, ITT
Method: The BSS is a 21-item self-reported instrument to detect and measure the severity of suicidal ideation in adults and adolescents aged 17 years and older. The BSS total score represents the severity of suicide ideation, and it is calculated by summing the ratings of the first 19 items; the total score ranges from 0 to 38, with a higher score representing greater suicide ideation. Increasing scores reflect increases in suicidal risk.

[2] = test system: subjects with MDD at imminent risk for suicide; experiment: Beck Hopelessness Scale, BHS ([…]2001); format: in vivo, human; conditions: 84 mg, ANCOVA LOCF, ITT
Excerpt: The BHS is a self-reported measure to assess one's level of negative expectations or pessimism regarding the future. It consists of 20 true-false items that examine the respondent's attitude over the past week by either endorsing a pessimistic statement or denying an optimistic statement. For every statement, each response is assigned a score of 0 or 1. The total BHS score is a sum of item responses and ranges from 0 to 20, with a higher score representing a higher level of hopelessness.

[3] = test system: subjects with MDD at imminent risk for suicide; format: in vivo, human; conditions: 84 mg
Method: Transient blood pressure increases peaked for the esketamine group at approximately 40 minutes post dose with the maximum mean increases (across all dosing days) in systolic BP being 8.7 in the placebo group and 16.7 in the esketamine 84 mg group. The maximum mean increases (across all dosing days) in diastolic BP were 7.6 in the placebo group and 11.9 in the esketamine 84 mg group. […] See, FIGS. 46 and 47.

[4] = test system: patients with treatment-resistant depression (TRD); experiment: GAD-7 (Example 7); format: in vivo, human
Method: Overall illness severity was assessed on the Clinical Global Impression of Severity (CGI-S) scale (Guy, “ECDEU Assessment Manual for Psychopharmacology—Revised (DHEW Publ No ADM 76-338)”, Rockville, Md.: U.S. Department of Health, Education, and Welfare, Public Health Service, Alcohol, Drug Abuse, and Mental Health Administration, NIMH Psychopharmacology Research Branch, Division of Extramural Research Programs; 1976, pp 218-222). Participants assessed their severity of anxiety on the Generalized Anxiety Disorder 7-item (GADS-7) Scale (See, Tables 157 and 158). See, Spitzer, “A brief measure for assessing generalized anxiety disorder—the GAD-7”, Arch. Intern. Med., 2006, 166(10):1092-1097.

[5] = test system: patients with treatment-resistant depression (TRD); experiment: CADSS (Example 7); parameters: species or system human; conditions: in vivo
Method: Adverse events were monitored throughout the study. Other safety assessments (i.e., laboratory tests, vital signs, physical examination) were performed at pre-specified time points. Vital signs, the Clinician Administered Dissociative States Scale (CADSS; Bremner, “Measurement of dissociative states with the clinician-administered dissociative states scale (CADSS)”, J. Traumatic Stress, 1998, 11(1):125-136), and the 4-item positive symptom subscale from the Brief Psychiatric Rating Scale (BPRS; Overall, “The Brief Psychiatric Rating Scale. Psychological Reports”, 1962, 10:799-812) were assessed pre-dose, at 40 minutes, and 2 hours post-dose.

[6] = Pharmacokinetics of intranasal esketamine in healthy subjects (Example 9); conditions: across the 3 treatment groups
Method: This was an open-label, single-center study. The subjects were healthy Caucasian men and women, 20 to 55 years of age, inclusive. […] The solution consisted of:
Blood samples (4 mL each) for determination of esketamine and noresketamine plasma concentrations were collected into the appropriate collection tube (e.g., Vacutainer®) at timepoints 0.00, 0.12, 0.20, 0.37, 0.53, 0.67, 0.83, 1.00, 1.25, 1.50, 2.00, 3.00, 4.00, 6.00, 9.00, 12.00, 18.00, and 24.00 h. The total amount of blood to be drawn for clinical laboratory tests and PK evaluations is approximately 327 mL.
Plasma samples were analyzed for esketamine and noresketamine concentrations using the validated, specific and sensitive liquid chromatography coupled to tandem mass spectrometry (LC-MS/MS) achiral method of Example 8.
Serial PK blood samples (4 mL each) were collected for a 24-hour period from each subject (Periods 1, 2, and 3). […] Statistical Methods 1.6.4.1. Sample Size
The following key parameters of esketamine and noresketamine in plasma were calculated using noncompartmental methods and actual sampling times: Cmax, tmax, AUClast, AUC∞, t1/2,λ, and λz.

[7] = Pharmacokinetics assembled from 14 Phase 1 studies (Example 10); conditions: for Terminal t1/2 / AUClast / Cmax / tmax: young adult subjects; for Terminal t1/2: range across studies; for AUClast / Cmax: range of mean values; for tmax: range of median values
Method: The data herein was assembled from 14 Phase 1 studies; each Phase 1 study was performed similarly to the study outlined in Example 9 in which the PK of esketamine was assessed.

adult subjects with TRD [8] = conditions: US patients
Excerpt: Adverse events were reported by the subject (or, when appropriate, by a caregiver, surrogate, or the subject's legally acceptable representative) for the duration of the study. Adverse events were followed by the investigator. TEAEs of special interest were examined separately.
The verbatim terms used in the eCRF by investigators to identify adverse events were coded using the MedDRA. All reported adverse events with onset during the double-blind induction phase (i.e., TEAEs, and adverse events that have worsened since baseline) were included in the analysis. For each adverse event, the percentage of subjects who experience at least 1 occurrence of the given event was summarized by treatment group. Adverse events occurring during the follow-up phase were summarized separately.
TEAEs of special interest were examined separately. AEs of special interest were listed in the SAP. Subjects who died, who discontinued treatment due to an adverse event, or who experienced a severe or a serious adverse event were summarized separately.
An adverse event is any untoward medical occurrence in a clinical study subject administered a medicinal (investigational or non-investigational) product. […]

adult subjects with TRD [9] = test system: adult subjects with TRD
Method: Blood pressure and pulse/heart rate measurements were assessed supine with a completely automated device. Manual techniques were used only if an automated device is not available. Blood pressure and pulse/heart rate measurements were preceded by at least 5 minutes of rest in a quiet setting without distractions (e.g., television, cell phones).
Descriptive statistics of temperature, pulse/heart rate, respiratory rate, pulse oximetry, and blood pressure (systolic and diastolic) (supine) values and changes from baseline were summarized at each scheduled time point. The percentage of subjects with values beyond clinically important limits were summarized.

adult subjects with TRD [10] = conditions: double-blind phase
Method: The CADSS is an instrument for the measurement of present-state dissociative symptoms, and was administered to assess treatment-emergent dissociative symptoms. The CADSS consists of 23 subjective items, divided into 3 components: Depersonalization (Items 3 to 7, 20, and 23), derealization (Items 1, 2, 8 to 13, 16 to 19, and 21) and amnesia (Items 14, 15, and 22). Participant's responses were coded on a 5-point scale (0=not at all through to 4=extremely).
(§1) The Clinician Administered Dissociative States Scale (CADSS) was measured prior to the start of each dose, at 40 minutes, and 1.5 hours postdose.

[11] = test system: elderly subjects with TRD; conditions: US patients aged ≥65 years
Method: Safety evaluation included reported adverse events, clinical laboratory tests, vital sign measurements, physical examinations, electrocardiograms and nasal examinations. Safety was assessed via treatment emergent AEs (TEAEs).

[12] = test system: subjects with MDD at imminent risk for suicide; conditions: 84 mg
Method: The CADSS was measured prior to the start of each dose, at 40 minutes, 2 hours, and 4 hours postdose.

subjects with TRD = conditions: human, in vivo, other: intranasal
Method: as §1

## CN[C@]1(c2ccccc2Cl)CCCCC1=O [esketamine, (S)-2-(2-chlorophenyl)-2-(methylamino)cyclohexanone]
[1]; Day 1 4-hours postdose, Day 2 (DB), End Point (DB)
  change in BSS total score vs placebo: no statistically significant differences
[1]; Day 1(DB): 4 H
  BSS total score change from baseline, Diff. of LS Means (minus Placebo): −2.3
[1]; Day 2(DB)
  BSS total score change from baseline, Diff. of LS Means (minus Placebo): −1.9
[1]; End Point(DB)
  BSS total score change from baseline, Diff. of LS Means (minus Placebo): −1.7
[2]; Day 1(DB): 4 H
  BHS total score change from baseline, Diff. of LS Means (minus Placebo): −1.5
[2]; End Point(DB)
  BHS total score change from baseline, Diff. of LS Means (minus Placebo): −2.3
[3]
  blood pressure returning to normal range by: ≤ 2 hours post dose
[3]; across all dosing days
  maximum mean increase in diastolic BP: 11.9
  maximum mean increase in systolic BP: 16.7
[4]; Period 1, 28 mg
  GAD-7 change, LS mean difference from placebo (SE): −0.21 (1.461)
[4]; Period 1, 56 mg
  GAD-7 change, LS mean difference from placebo (SE): −1.40 (1.478)
[4]; Period 2, 56 mg
  GAD-7 change, LS mean difference from placebo (SE): 0.60 (1.033)
[5]
  perceptual changes/dissociative symptoms (CADSS) peaked around: 30 to 40 min
  perceptual changes/dissociative symptoms (CADSS) resolved by: ≤ 2 h
[6]
  variability of AUC (AUClast and AUC∞): 25.0% to 30.4
  variability of Cmax (percent coefficient of variation): 35.7% to 36.7
[7]; nasal administration
  mean terminal t1/2: 7 to 12 h
[7]; single dose nasal spray 28 mg
  Terminal t1/2: 7.25 to 16.5 h
  AUClast: 128 to 183 ng·h/mL
  Cmax: 49.7 to 70.5 ng/mL
  tmax: 0.33 to 0.67 h
[7]; single dose nasal spray 56 mg
  Terminal t1/2: 6.8 to 9.83 h
  AUClast: 216 to 317 ng·h/mL
  Cmax: 71.8 to 117 ng/mL
  tmax: 0.50 to 0.77 h
[7]; single dose nasal spray 84 mg
  Terminal t1/2: 6.6 to 12.0 h
  AUClast: 310 to 489 ng·h/mL
  Cmax: 95.0 to 164 ng/mL
  tmax: 0.53 to 0.83 h
Adult subjects with TRD [8]
  patients who withdrew from nasal spray drug: 3 n
Adult subjects with TRD [9]; across all dosing days
  maximum mean increase in diastolic BP: 8.1
Adult subjects with TRD [9]; double-blind phase
  time blood pressure returned to normal range: 90 min
  time of peak of transient blood pressure increase post dose: approximately 40 minutes
Adult subjects with TRD [10]
  dissociative and perceptual change symptoms (CADSS) resolved by: ≤ 1.5 hours postdose
[11]
  patients who withdrew the nasal spray: 2 n
[12]
  dissociative and perceptual change symptoms (CADSS) resolved by: ≤ 2 hours post dose
Subjects with TRD
  dissociative/perceptual change symptoms (CADSS) resolved by: ≤ 1.5 hours post dose
